Consider six compounds from patent US20260166128A1, “HUMAN AMYLIN ANALOG, AND DERIVATIVE THEREOF AND USE THEREOF” (priority 2022, published 2026).

The term EC50 denotes the midpoint of the concentration-response curve.

SMILES strings stand for the structures. Numbered stars: 1 amine (or outer) side, 2 acyl side, 3 side chain; on linkers, the order of the positions; unused ones are H or OH. Bridge positions count the residues as written; N and C are the ends. Square brackets hold non-standard residues; d marks the D form. Side chains are listed from the residue outwards. Peptide text beside a SMILES is read from it. * marks the point of attachment. C20 diacid = O=C(O)CCCCCCCCCCCCCCCCCCC(=O)*; γGlu = O=C(O)[C@H](CCC(=O)[*:2])N[*:1]; Hyp = O=C(O)[C@@H]1C[C@@H](O)CN1; Dap = NC[C@H](N)C(=O)O; AEEA = NCCOCCOCC(=O)O; Inp = O=C(O)C1CCNCC1

This assay has as its target T1, human amylin receptor (Homo sapiens, UniProt O60896+P30988).
T1 construct: host or cells: CHO-K1/Ga15/AMY3 cells, further stably transfected with a CRE-luciferase plasmid
T1 sequence (P30988 25-474): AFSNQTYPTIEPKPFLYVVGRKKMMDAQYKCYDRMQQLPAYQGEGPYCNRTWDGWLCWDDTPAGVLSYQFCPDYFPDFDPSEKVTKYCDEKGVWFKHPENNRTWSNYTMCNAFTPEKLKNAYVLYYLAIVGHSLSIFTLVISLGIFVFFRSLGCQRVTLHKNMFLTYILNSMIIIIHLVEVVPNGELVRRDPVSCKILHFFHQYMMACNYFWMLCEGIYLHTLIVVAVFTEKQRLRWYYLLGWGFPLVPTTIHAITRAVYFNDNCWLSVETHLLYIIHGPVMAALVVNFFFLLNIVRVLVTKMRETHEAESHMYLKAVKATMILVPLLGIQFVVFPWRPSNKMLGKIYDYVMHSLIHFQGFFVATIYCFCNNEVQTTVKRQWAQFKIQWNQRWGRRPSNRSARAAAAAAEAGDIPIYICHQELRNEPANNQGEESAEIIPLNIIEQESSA
T1 sequence (O60896 24-148 partner): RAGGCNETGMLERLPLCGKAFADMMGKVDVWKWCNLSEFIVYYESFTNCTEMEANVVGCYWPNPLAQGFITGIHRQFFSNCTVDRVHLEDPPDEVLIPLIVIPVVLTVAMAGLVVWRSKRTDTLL
Kind of assay: Luciferase assay of amylin derivatives in amylin receptor/CRE-luc CHO cell line. In kind it is cell-based. As to conditions: CHO-K1/Ga15/AMY3 CRE-luc cells, 24 hours incubation, F12 medium containing 10% FBS; read-out: EC50.

Procedure: The experiment was intended to detect the activity or efficacy of the amylin derivatives on a human amylin receptor in vitro by luciferase assay.
50 μL of growth medium (F12 medium containing 10% FBS) was added into each well of a white 96-well plate, and the stably transfected amylin/CRE-lue CHO cells were inoculated into the white 96-well plate at a density of about 20,000 cells/well for activity determination.

Take `CC[C@H](C)[C@H](NC(=O)[C@@H]1CCCN1C(=O)[C@H](CCCCNC(=O)CC[C@H](NC(=O)CCCCCCCCCCCCCCCCCCC(=O)O)C(=O)O)NC(=O)[C@H](CC(C)C)NC(=O)[C@H](CC(N)=O)NC(=O)[C@H](CC(N)=O)NC(=O)[C@H](CO)NC(=O)[C@H](CO)NC(=O)[C@H](Cc1c[nH]cn1)NC(=O)[C@H](CCCNC(=N)N)NC(=O)[C@H](CC(C)C)NC(=O)[C@H](Cc1ccccc1)NC(=O)[C@H](CC(=O)O)NC(=O)[C@H](C)NC(=O)[C@H](CC(C)C)NC(=O)[C@H](CCCNC(=N)N)NC(=O)[C@H](CCC(N)=O)NC(=O)[C@@H](NC(=O)[C@H](C)NC(=O)[C@@H]1CSSC[C@H](NC(=O)[C@@H](N)CN)C(=O)N[C@@H](CC(N)=O)C(=O)N[C@@H]([C@@H](C)O)C(=O)N[C@@H](C)C(=O)N[C@@H]([C@@H](C)O)C(=O)N1)[C@@H](C)O)C(=O)N[C@@H](CC(C)C)C(=O)N1CCC[C@H]1C(=O)N1CCC[C@H]1C(=O)N[C@H](C(=O)N[C@@H](CC(N)=O)C(=O)N[C@H](C(=O)NCC(=O)N[C@@H](CO)C(=O)N[C@@H](CC(N)=O)C(=O)N[C@H](C(=O)N1C[C@H](O)C[C@H]1C(N)=O)[C@@H](C)O)C(C)C)[C@@H](C)O` [PD073] (H-[Dap]CNTATCATQRLADFLRHSSNNLK([γGlu-C20 diacid])PILPPTNVGSNT[Hyp]-NH2; disulfide 2-7): the EC50 was found to be 0.063 nM.
As for `CC[C@H](C)[C@H](NC(=O)[C@@H]1CCCN1C(=O)[C@H](CO)NC(=O)[C@H](CC(C)C)NC(=O)[C@H](CC(N)=O)NC(=O)[C@H](CC(N)=O)NC(=O)[C@H](CO)NC(=O)[C@H](CO)NC(=O)[C@H](Cc1c[nH]cn1)NC(=O)[C@H](CCCNC(=N)N)NC(=O)[C@H](CC(C)C)NC(=O)[C@H](Cc1ccccc1)NC(=O)[C@H](CC(=O)O)NC(=O)[C@H](C)NC(=O)[C@H](CC(C)C)NC(=O)[C@H](CCCNC(=N)N)NC(=O)[C@H](CCC(N)=O)NC(=O)[C@@H](NC(=O)[C@H](C)NC(=O)[C@@H]1CSSC[C@H](NC(=O)[C@H](CCCCN)NC(=O)CC[C@H](NC(=O)CCCCCCCCCCCCCCCCCCC(=O)O)C(=O)O)C(=O)N[C@@H](CC(N)=O)C(=O)N[C@@H]([C@@H](C)O)C(=O)N[C@@H](C)C(=O)N[C@@H]([C@@H](C)O)C(=O)N1)[C@@H](C)O)C(=O)N[C@@H](CC(C)C)C(=O)N1CCC[C@H]1C(=O)N1CCC[C@H]1C(=O)N[C@H](C(=O)N[C@@H](CC(N)=O)C(=O)N[C@H](C(=O)NCC(=O)N[C@@H](CO)C(=O)N[C@@H](CC(N)=O)C(=O)N[C@H](C(=O)N1CCC[C@H]1C(N)=O)[C@@H](C)O)C(C)C)[C@@H](C)O` [PD166] ({C20 diacid-γGlu}-KCNTATCATQRLADFLRHSSNNLSPILPPTNVGSNTP-NH2; disulfide 2-7 (inferred)), the EC50 came to 0.054 nM.
The result for `CC[C@H](C)[C@H](NC(=O)[C@@H]1CCCN1C(=O)CNC(=O)[C@H](CC(C)C)NC(=O)[C@H](CC(N)=O)NC(=O)[C@H](CCCCNC(=O)COCCOCCNC(=O)COCCOCCNC(=O)CC[C@H](NC(=O)CCCCCCCCCCCCCCCCCCC(=O)O)C(=O)O)NC(=O)[C@H](CO)NC(=O)[C@H](CO)NC(=O)[C@H](Cc1c[nH]cn1)NC(=O)[C@H](CCCNC(=N)N)NC(=O)[C@H](CC(C)C)NC(=O)[C@H](Cc1ccccc1)NC(=O)[C@H](CC(=O)O)NC(=O)[C@H](C)NC(=O)[C@H](CC(C)C)NC(=O)[C@H](CCCNC(=N)N)NC(=O)[C@H](CCC(N)=O)NC(=O)[C@@H](NC(=O)[C@H](C)NC(=O)[C@@H]1CSSC[C@H](NC(=O)[C@@H](N)CCCNC(=N)N)C(=O)N[C@@H](CC(N)=O)C(=O)N[C@@H]([C@@H](C)O)C(=O)N[C@@H](C)C(=O)N[C@@H]([C@@H](C)O)C(=O)N1)[C@@H](C)O)C(=O)N[C@@H](CC(C)C)C(=O)N1CCC[C@H]1C(=O)N1CCC[C@H]1C(=O)N[C@H](C(=O)N[C@@H](CC(N)=O)C(=O)N[C@H](C(=O)NCC(=O)N[C@@H](CO)C(=O)N[C@@H](CC(N)=O)C(=O)N[C@H](C(=O)N1C[C@H](O)C[C@H]1C(N)=O)[C@@H](C)O)C(C)C)[C@@H](C)O` [PD091] (H-RCNTATCATQRLADFLRHSSK([AEEA-AEEA-γGlu-C20 diacid])NLGPILPPTNVGSNT[Hyp]-NH2; disulfide 2-7) reads 0.03 nM.
As for `CC[C@H](C)[C@H](NC(=O)[C@@H]1CCCN1C(=O)[C@H](CCCCNC(=O)CC[C@H](NC(=O)CCCCCCCCCCCCCCCCCCC(=O)O)C(=O)O)NC(=O)[C@H](CC(C)C)NC(=O)[C@H](CC(N)=O)NC(=O)[C@H](CC(N)=O)NC(=O)[C@H](CO)NC(=O)[C@H](CO)NC(=O)[C@H](Cc1c[nH]cn1)NC(=O)[C@H](CCCNC(=N)N)NC(=O)[C@H](CC(C)C)NC(=O)[C@H](Cc1ccccc1)NC(=O)[C@H](CC(=O)O)NC(=O)[C@H](C)NC(=O)[C@H](CC(C)C)NC(=O)[C@H](CCCNC(=N)N)NC(=O)[C@H](CCC(N)=O)NC(=O)[C@@H](NC(=O)[C@H](C)NC(=O)[C@@H]1CSSC[C@H](NC(=O)[C@@H](N)CCC(=O)O)C(=O)N[C@@H](CC(N)=O)C(=O)N[C@@H]([C@@H](C)O)C(=O)N[C@@H](C)C(=O)N[C@@H]([C@@H](C)O)C(=O)N1)[C@@H](C)O)C(=O)N[C@@H](CC(C)C)C(=O)N1CCC[C@H]1C(=O)N1CCC[C@H]1C(=O)N[C@H](C(=O)N[C@@H](CC(N)=O)C(=O)N[C@H](C(=O)NCC(=O)N[C@@H](CO)C(=O)N[C@@H](CC(N)=O)C(=O)N[C@H](C(=O)N1C[C@H](O)C[C@H]1C(N)=O)[C@@H](C)O)C(C)C)[C@@H](C)O` [PD080] (H-ECNTATCATQRLADFLRHSSNNLK([γGlu-C20 diacid])PILPPTNVGSNT[Hyp]-NH2; disulfide 2-7), the figure is 0.11 nM; as for `CC[C@H](C)[C@H](NC(=O)[C@@H]1CCCN1C(=O)CNC(=O)[C@H](CC(C)C)NC(=O)[C@H](CC(N)=O)NC(=O)[C@H](CC(N)=O)NC(=O)[C@H](CO)NC(=O)[C@H](CCCCNC(=O)CC[C@H](NC(=O)CCCCCCCCCCCCCCCCCCC(=O)O)C(=O)O)NC(=O)[C@H](Cc1c[nH]cn1)NC(=O)[C@H](CCCNC(=N)N)NC(=O)[C@H](CC(C)C)NC(=O)[C@H](Cc1ccccc1)NC(=O)[C@H](CC(=O)O)NC(=O)[C@H](C)NC(=O)[C@H](CC(C)C)NC(=O)[C@H](CCCNC(=N)N)NC(=O)[C@H](CCC(N)=O)NC(=O)[C@@H](NC(=O)[C@H](C)NC(=O)[C@@H]1CSSC[C@H](NC(=O)[C@@H](N)CCCNC(=N)N)C(=O)N[C@@H](CC(N)=O)C(=O)N[C@@H]([C@@H](C)O)C(=O)N[C@@H](C)C(=O)N[C@@H]([C@@H](C)O)C(=O)N1)[C@@H](C)O)C(=O)N[C@@H](CC(C)C)C(=O)N1CCC[C@H]1C(=O)N1CCC[C@H]1C(=O)N[C@H](C(=O)N[C@@H](CC(N)=O)C(=O)N[C@H](C(=O)NCC(=O)N[C@@H](CO)C(=O)N[C@@H](CC(N)=O)C(=O)N[C@H](C(=O)N1C[C@H](O)C[C@H]1C(N)=O)[C@@H](C)O)C(C)C)[C@@H](C)O` [PD098] (H-RCNTATCATQRLADFLRHK([γGlu-C20 diacid])SNNLGPILPPTNVGSNT[Hyp]-NH2; disulfide 2-7), 0.077 nM; as for `CC[C@H](C)[C@H](NC(=O)[C@@H]1CCCN1C(=O)[C@H](CCCCN)NC(=O)[C@H](CC(C)C)NC(=O)[C@H](CC(N)=O)NC(=O)[C@H](CC(N)=O)NC(=O)[C@H](CO)NC(=O)[C@H](CO)NC(=O)[C@H](Cc1c[nH]cn1)NC(=O)[C@H](CCCNC(=N)N)NC(=O)[C@H](CC(C)C)NC(=O)[C@H](Cc1ccccc1)NC(=O)[C@H](CC(=O)O)NC(=O)[C@H](C)NC(=O)[C@H](CC(C)C)NC(=O)[C@H](CCCNC(=N)N)NC(=O)[C@H](CCC(N)=O)NC(=O)[C@@H](NC(=O)[C@H](C)NC(=O)[C@@H]1CSSC[C@H](NC(=O)[C@H](CCCCN)NC(=O)C2CCN(C(=O)COCCOCCNC(=O)COCCOCCNC(=O)CCCCCCCCCCCCCCCCCCC(=O)O)CC2)C(=O)N[C@@H](CC(N)=O)C(=O)N[C@@H]([C@@H](C)O)C(=O)N[C@@H](C)C(=O)N[C@@H]([C@@H](C)O)C(=O)N1)[C@@H](C)O)C(=O)N[C@@H](CC(C)C)C(=O)N1CCC[C@H]1C(=O)N1CCC[C@H]1C(=O)N[C@H](C(=O)N[C@@H](CC(N)=O)C(=O)N[C@H](C(=O)NCC(=O)N[C@@H](CO)C(=O)N[C@@H](CC(N)=O)C(=O)N[C@H](C(=O)N1C[C@H](O)C[C@H]1C(N)=O)[C@@H](C)O)C(C)C)[C@@H](C)O` [PD180] ({C20 diacid-AEEA-AEEA-Inp}-KCNTATCATQRLADFLRHSSNNLKPILPPTNVGSNT[Hyp]-NH2; disulfide 2-7), 0.016 nM.
